Test results as given in patent US20230094922A1, “METHODS OF THERAPEUTIC PROGNOSTICATION” (GENETIKAPLUS LTD., priority 2020, published 2023).

Tested on: iPSC-derived cortical neurons
Test: RNA sequencing, differential gene expression: Bupropion-treated vs vehicle-only induced neurons (Tables 5, 6)
Type: cell-based, human
Procedure: iPSC differentiation into neurons-iPSCs were seeded at a density of 3×10^6 cells/well on a hESC-qualified Matrigel pre-coated 6-well plate and incubated at 37° C., 5% CO2 overnight. Differentiation was initiated the following day (day 0) after verifying that 100% confluency was reached. Differentiation media was added daily according to the following order: […]7 (day 15 onward) similar to a previously published protocol developed by for rapid differentiation to cortical neurons. The components of the described media, Q1-7, are provided in Appendix 1. Cells were assessed for differentiation efficiency and cell death on a daily basis. On day 9, differentiated neurons were re-plated on either 96-well plates (destined for staining) or 12-well plates (destined for RNA extraction) that were coated with 15 μg/mL Poly-ornithine diluted in PBS (overnight incubation at 37° C.), followed by 1 μg/mL Laminin and 2 μg/mL Fibronectin diluted in PBS (overnight incubation at 37° C.): Neurons were first rinsed with pre-warmed PBS and 1 ml/well of Accutase was added for 35 minutes at 37° C., 5% CO2. DNAse1 (0.5 mg/mL) was then added for 10 additional minutes. 3 ml of pre-warmed Neurobasal media was added to each well and neurons were gently collected using a 5 ml […]. Wells were then verified for the presence of any remaining neurons. Neurons were spun down and resuspended in Q6 media. Neurons were seeded at a density of 150,000 cells/cm^2 placed back at 37° C. Following four hours of incubation, media was changed to Q6 media (150 μl per 96-well and 1 ml per 12-well). […] RNA-sequencing samples were aligned to the GRCh38 reference genome using STAR aligner. TMM normalization of RNA read counts and differential gene expression analysis were carried out using edgeR. […] Cells were reprogrammed into iPSCs, following which iPSCs were differentiated into frontal cortical neuronal cells (see Materials and Methods). […] Another dose of drug or control was also administered at day 32. At day 35 neurons were either fixed for histological examination or isolated for RNA extraction.

[1] = 10 μM Bupropion vs vehicle, responder-derived neurons, day 35, PValue NS (not significant)
[2] = Bupropion vs vehicle only, p<0.05, over 60,000 genes probed

CC(NC(C)(C)C)C(=O)c1cccc(Cl)c1 (stereo not drawn) [Bupropion, 3-Chloro-N-tert-butyl-β-keto-α-methylphenethylamin]
logFC NFKBID expression (10 μM Bupropion vs vehicle, responder-derived neurons, day 35, PValue 0.003685448): −0.6042
logFC TCF7 expression (10 μM Bupropion vs vehicle, responder-derived neurons, day 35, PValue 0.005666754): −0.3904
logFC DUSP23 expression (10 μM Bupropion vs vehicle, responder-derived neurons, day 35, PValue 0.006214757): −0.4927
logFC TENT5B expression (10 μM Bupropion vs vehicle, responder-derived neurons, day 35, PValue 0.008132328): −0.8021
logFC UGT3A2 expression (10 μM Bupropion vs vehicle, responder-derived neurons, day 35, PValue 0.009321582): −0.4889
logFC CCDC51 expression (10 μM Bupropion vs vehicle, responder-derived neurons, day 35, PValue 0.012079592): −0.2443
logFC CTNS expression (10 μM Bupropion vs vehicle, responder-derived neurons, day 35, PValue 0.013463621): −0.2404
logFC PYCARD expression (10 μM Bupropion vs vehicle, responder-derived neurons, day 35, PValue 0.013981248): −1.05
logFC ABHD4 expression (10 μM Bupropion vs vehicle, responder-derived neurons, day 35, PValue 0.014582448): −0.3111
logFC PTPRQ expression (10 μM Bupropion vs vehicle, responder-derived neurons, day 35, PValue 0.018081564): 0.89
logFC SMPDL3B expression (10 μM Bupropion vs vehicle, responder-derived neurons, day 35, PValue 0.022812161): −0.7488
logFC KLC3 expression (10 μM Bupropion vs vehicle, responder-derived neurons, day 35, PValue 0.023692875): −0.8533
logFC PNKP expression (10 μM Bupropion vs vehicle, responder-derived neurons, day 35, PValue 0.024437941): −0.2172
logFC SPNS1 expression (10 μM Bupropion vs vehicle, responder-derived neurons, day 35, PValue 0.024838304): −0.7022
logFC FAM117A expression (10 μM Bupropion vs vehicle, responder-derived neurons, day 35, PValue 0.025868873): −0.2485
logFC PPL expression (10 μM Bupropion vs vehicle, responder-derived neurons, day 35, PValue 0.026069274): −0.3932
logFC ZNF425 expression (10 μM Bupropion vs vehicle, responder-derived neurons, day 35, PValue 0.026180649): −0.2317
logFC MT2A expression (Table 6, downregulated) (10 μM Bupropion vs vehicle, responder-derived neurons, day 35, PValue 0.02632325): −0.7705
logFC COX16 expression (10 μM Bupropion vs vehicle, responder-derived neurons, day 35, PValue 0.026606667): 0.3985
logFC RSAD2 expression (10 μM Bupropion vs vehicle, responder-derived neurons, day 35, PValue 0.026606947): 0.9753
logFC PPP1R1B expression (10 μM Bupropion vs vehicle, responder-derived neurons, day 35, PValue 0.026677416): −0.677
logFC LLPH expression (10 μM Bupropion vs vehicle, responder-derived neurons, day 35, PValue 0.026874183): 0.1758
logFC CKS1B expression (10 μM Bupropion vs vehicle, responder-derived neurons, day 35, PValue 0.02807621): −0.3153
logFC LGR6 expression (10 μM Bupropion vs vehicle, responder-derived neurons, day 35, PValue 0.028853165): −0.6091
logFC TSTD2 expression (10 μM Bupropion vs vehicle, responder-derived neurons, day 35, PValue 0.028984217): 0.1932
logFC HS3ST5 expression (10 μM Bupropion vs vehicle, responder-derived neurons, day 35, PValue 0.028999172): 0.5251
logFC ART5 expression (10 μM Bupropion vs vehicle, responder-derived neurons, day 35, PValue 0.030155652): −0.5082
logFC ADRA2B expression (10 μM Bupropion vs vehicle, responder-derived neurons, day 35, PValue 0.031233579): −0.7451
logFC ZNF394 expression (10 μM Bupropion vs vehicle, responder-derived neurons, day 35, PValue 0.031885505): −0.1977
logFC CHMP4A expression (10 μM Bupropion vs vehicle, responder-derived neurons, day 35, PValue 0.031923817): 0.3939
logFC ETV5 expression (10 μM Bupropion vs vehicle, responder-derived neurons, day 35, PValue 0.031953602): −0.2432
logFC VWA2 expression (10 μM Bupropion vs vehicle, responder-derived neurons, day 35, PValue 0.033110679): −0.8249
logFC CDC42BPG expression (10 μM Bupropion vs vehicle, responder-derived neurons, day 35, PValue 0.034205433): −0.6386
logFC PSD3 expression (10 μM Bupropion vs vehicle, responder-derived neurons, day 35, PValue 0.034363174): 0.2947
logFC TRAF3IP2 expression (10 μM Bupropion vs vehicle, responder-derived neurons, day 35, PValue 0.035638975): −0.342
logFC TXNRD2 expression (10 μM Bupropion vs vehicle, responder-derived neurons, day 35, PValue 0.036129679): −0.3971
logFC RAB43 expression (10 μM Bupropion vs vehicle, responder-derived neurons, day 35, PValue 0.036339642): −0.7667
logFC APOE expression (10 μM Bupropion vs vehicle, responder-derived neurons, day 35, PValue 0.036466348): −0.4756
logFC TYW1B expression (10 μM Bupropion vs vehicle, responder-derived neurons, day 35, PValue 0.037441749): −0.2836
logFC ARL17B expression (10 μM Bupropion vs vehicle, responder-derived neurons, day 35, PValue 0.037774775): 0.4487
logFC TOM1 expression (10 μM Bupropion vs vehicle, responder-derived neurons, day 35, PValue 0.039328923): −0.2212
logFC FGF1 expression (10 μM Bupropion vs vehicle, responder-derived neurons, day 35, PValue 0.040753088): 0.7441
logFC GPR89A expression (10 μM Bupropion vs vehicle, responder-derived neurons, day 35, PValue 0.040776978): −0.3135
logFC HAUS8 expression (10 μM Bupropion vs vehicle, responder-derived neurons, day 35, PValue 0.040813288): −0.3377
logFC TNNI3 expression (10 μM Bupropion vs vehicle, responder-derived neurons, day 35, PValue 0.04085042): −0.4473
logFC INMT expression (10 μM Bupropion vs vehicle, responder-derived neurons, day 35, PValue 0.04107423): 0.8156
logFC LHFPL3 expression (10 μM Bupropion vs vehicle, responder-derived neurons, day 35, PValue 0.041076888): 0.8454
logFC TJP3 expression (10 μM Bupropion vs vehicle, responder-derived neurons, day 35, PValue 0.041258334): −0.4285
logFC RNASEK expression (10 μM Bupropion vs vehicle, responder-derived neurons, day 35, PValue 0.041364592): −0.4148
logFC MACROD1 expression (10 μM Bupropion vs vehicle, responder-derived neurons, day 35, PValue 0.041485982): −0.4078
logFC DDX55 expression (10 μM Bupropion vs vehicle, responder-derived neurons, day 35, PValue 0.041521555): −0.177
logFC MAP4K1 expression (10 μM Bupropion vs vehicle, responder-derived neurons, day 35, PValue 0.041777603): −0.4541
logFC MADCAM1 expression (10 μM Bupropion vs vehicle, responder-derived neurons, day 35, PValue 0.042721026): −0.6346
logFC NMRK2 expression (10 μM Bupropion vs vehicle, responder-derived neurons, day 35, PValue 0.042934722): −0.915
logFC RARRES2 expression (10 μM Bupropion vs vehicle, responder-derived neurons, day 35, PValue 0.044126316): −0.5614
logFC GABRD expression (10 μM Bupropion vs vehicle, responder-derived neurons, day 35, PValue 0.044432972): −0.661
logFC SCN9A expression (10 μM Bupropion vs vehicle, responder-derived neurons, day 35, PValue 0.044462789): 0.653
logFC CTSD expression (10 μM Bupropion vs vehicle, responder-derived neurons, day 35, PValue 0.044610728): −0.3042
logFC MINDY3 expression (10 μM Bupropion vs vehicle, responder-derived neurons, day 35, PValue 0.044932218): 0.1907
logFC FBXO2 expression (10 μM Bupropion vs vehicle, responder-derived neurons, day 35, PValue 0.044969345): −0.5297
logFC MT1X expression (10 μM Bupropion vs vehicle, responder-derived neurons, day 35, PValue 0.045842417): −0.6858
logFC LRRC2 expression (10 μM Bupropion vs vehicle, responder-derived neurons, day 35, PValue 0.045853063): −0.8234
logFC ZFP69B expression (10 μM Bupropion vs vehicle, responder-derived neurons, day 35, PValue 0.046824204): 0.2565
logFC SLC45A2 expression (10 μM Bupropion vs vehicle, responder-derived neurons, day 35, PValue 0.046871029): −1.05
logFC KLHL21 expression (10 μM Bupropion vs vehicle, responder-derived neurons, day 35, PValue 0.047318696): −0.2723
logFC RILPL1 expression (10 μM Bupropion vs vehicle, responder-derived neurons, day 35, PValue 0.047560251): −0.1692
logFC PSMB10 expression (10 μM Bupropion vs vehicle, responder-derived neurons, day 35, PValue 0.048107795): −0.5669
logFC LHPP expression (10 μM Bupropion vs vehicle, responder-derived neurons, day 35, PValue 0.048445403): −0.2669
logFC RABEP2 expression (10 μM Bupropion vs vehicle, responder-derived neurons, day 35, PValue 0.049224822): −0.2496
logFC LARGE2 expression (10 μM Bupropion vs vehicle, responder-derived neurons, day 35, PValue 0.049340025): −0.566
logFC ZNF221 expression (10 μM Bupropion vs vehicle, responder-derived neurons, day 35, PValue 0.049596306): 0.3254
logFC LIN37 expression (10 μM Bupropion vs vehicle, responder-derived neurons, day 35, PValue 3.06E−05): −0.8411
logFC APOL1 expression [1]: −0.7489
logFC ATP8B4 expression [1]: −0.6945
logFC CA3 expression [1]: 0.6571
logFC CDK6 expression [1]: 0.2579
logFC CORT expression [1]: 0.6431
logFC CXCL11 expression (Table 6, downregulated) [1]: −1.176
logFC ESR2 expression [1]: 0.4833
logFC GOLGA8H expression [1]: −0.565
logFC GRPR expression [1]: 0.6268
logFC MT1E expression [1]: 2.123
logFC MT2A expression (Table 5, upregulated) [1]: 1.378
logFC PITX2 expression [1]: 0.9302
logFC SEPTIN5 expression [1]: 0.5877
number of genes significantly downregulated in responders after treatment, but not in non-responders [2]: 57 genes
number of genes significantly upregulated in responders after treatment, but not in non-responders [2]: 18 genes
